The values that follow come from patent publication US9050301B2, “Pharmaceutical composition for treatment of corneal endothelial wounds containing angiogenin” (Chung-Ang University Industry-Academy Cooperation Foundation, priority 2013, dated 2015).

Experiment [1] relates to rabbit corneal endothelium. The experiment can be described thus: Ratio of corneas without opacity and edema (digital camera images) after trans-corneal freezing damage. The class given is in vivo. As to conditions: angiogenin 200 μg/mL. The method, then: (§1) 30 eyeballs of 15 healthy white New Zealand rabbits weighing about 2.0 kg to about 3.0 kg without external opacification were anesthetized by intramuscular injection with 12.5 mg/kg of tiletamine/zolazepam (Zoletil®, VirbacLab, France) and 12.5 mg/kg of zylazine (Rompun®, BayerKorea, Korea). Afterwards, 0.5% povidone-iodine was used for disinfection of the whole range of experimental sight. Referring to FIG. 1, an 8 mm-diameter stainless steel rod as a probe was immersed in liquid nitrogen for 3 minutes, removed therefrom once the temperature of the liquid nitrogen reached −196° C., and brought into contact to the central cornea for 15 seconds. Then, each of the eyeballs was washed with 10 cc of 0.9% saline solution. In order to prevent the occurrence of corneal infection, the rabbit corneas were given instillation of Levofloxacin (Cravit®, Santen, Japan) three times a day for 3 days after the damage was induced.
(§2) 3 groups consisting of 10 eyeballs given instillation of angiogenin (200 μg/mL), 7 eyeballs given Y-27632 (10 mM) inhibitor of Rho-associated coiled-coil kinase (ROCK) pathway, and 7 eyeballs as a control group given phosphate-buffered solution (PBS) were each subjected to 50 μl of instillation at a time, and more particularly, 6 times a day for the first 2 days, and then, 4 times a day for the following 2 days, starting immediately after inducing freeze-damages to the trans-corneal endothelium. That is, the instillation was performed 20 times in total for 4 days.
Then, the groups were subjected to the evaluation of corneal opacity and corneal edema by using a digital camera (VLUUNV100HD, Samsung, Suwon, Korea) to obtain images taken in a diagonal direction.
Experiments have been carried out to identify effects of angiogenin-induced PI3k-Akt signaling pathway in terms of recovering the corneal transparency after inducing damages to the corneal endothelium. After inducing freeze-damages to the corneal endothelium, 4 eyeballs out of 30 rabbit eyeballs in total were subjected to 50 μl of each of 200 μg/mL of angiogenin and 200 μM of PI3k-Akt pathway inhibitor, LY294002 instillation at a time every 3 minutes, and more particularly, 6 times a day for the first 2 days, and then, 4 times a day for the following one day. That is, the instillation was performed 16 times in total for 3 days.

The subject of experiment [2] is rabbit corneal endothelium. In words: Alizarin red S-staining of corneal endothelium wounded area. The class given is in vivo. As to conditions: for Corneal endothelium wounded area observed by alizarin red S-staining: 192 hours (8th day) after freeze damage, compared with control group (p=0.050); for Morphology (hexagonality) of endothelial cells around the wounded area: 192 hours, 200× magnification. The method, then:
as §1, §2
Two eyeballs out of 30 eyeballs in total were each used as a negative control group of normal corneal endothelium and as a positive control group being subjected to alizarin red S-staining immediately after inducing freeze-damages to the trans-corneal endothelium. An overdose of KCl was administrated into the rest of the eyeballs by intramuscular injection 192 hours (8th day) after inducing freeze-damages to the trans-corneal, and accordingly, these eyeballs were sacrificed. Then, 3 eyeballs were removed for each of the control group, the group given angiogenin instillation, and the group given Y-27632 instillation. Then, the whole cornea was pulled off with respect to the corneal limbal boundary, immersed in 1% alizarin red S-staining solution (Lab Chem, Pittsburgh, USA) for 2 minutes, washed with 0.9% saline solution, and then, wet-mount with the endothelium facing upward. Images thereof were immediately obtained after observation by using an optical microscope, and then, the wounded area of the cornea was measured in pixels for a digital image at 40× magnification by using the Image J software (National Institutes of Health (NIH); http://rsbweb.nih.gov/ij/), and the endothelial cells around the wounded areas were observed and compared in terms of hexagonality at 200× magnification.

Experiment [3] has as its system human corneal endothelial cells. In words: In vitro scratch wound healing of cultured human corneal endothelial cells. It is filed as cell-based. As to conditions: for Wound healing index compared with the control group: 6 and 24 hours, angiogenin 5 μg/ml, Y-27632 10 μM. The method, then: A corneal endothelial tissue segment obtained from remaining corneal portions other than the central 8 mm corneal portion in cadaveric cornea donated for transplantation and a corneal endothelial tissue segment of a normal rabbit were cultured. Then, each of the corneal tissues was divided into 6 pieces and washed by shaking 6 times in a petri dish to which 7 ml of 5% penicillin/streptomycin (P/S) was added. Then, the washed tissues were each transferred to a 6-well dish such that the endothelial layer was facing down, and the tissues were semi-dried until the dishes were slightly drained. […]
Experiments have been carried to identify angiogenin effects on migration and proliferation of the corneal endothelial cells. […] At every 0 hour, 12 hours, 24 hours, and 48 hours, digital images of the remaining wounded areas were obtained at 40× magnification of the optical microscope, and measured in pixels by using the Image J software. […] At every 6 hours and 24 hours, the wounded areas were measured by using the Image J software. The ratio of initial wounded area versus recovered area was defined as wound healing index, which is calculated as shown below. […]
Experiments have been carried to identify optimal concentration of angiogenin to improve in vitro migration and proliferation improvement of the cultured human corneal endothelial cells. […] At every 0 hour, 12 hours, 24 hours, and 48 hours, the wounded areas were measured by using the Image J software. […]

Setting [4] is: 48 h after freeze damage, Y-27632 10 mM instillation.
[5] abbreviates: 72 h after freeze damage, Y-27632 10 mM, LY294002 200 μM instillation.
Setting [6] is: 144 h after freeze damage, Y-27632 10 mM instillation.
[7] abbreviates: 192 h after freeze damage, Y-27632 10 mM instillation.

For the compound “Angiogenin: 14.4-kDa single chain protein of 123 amino acids, secreted protein capable of inducing angiogenesis”, the “Ratio of number of cornea without opacity and edema (digital camera images)” value in experiment [1] (setting [4]) is recorded as 10%; in experiment [1] (setting [5]), 20%; in experiment [1] (setting [6]) it was 37.5%; in experiment [1] (setting [7]), 50%. Also, the “Corneal endothelium wounded area observed by alizarin red S-staining” value in experiment [2] is listed as “smallest the corneal endothelium wounded area”. In addition, the “Morphology (hexagonality) of endothelial cells around the wounded area” value in experiment [2] was “corneal endothelial cells in even hexagonality”. In addition, the “Angiogenin concentration giving the highest wound healing index” value in experiment [3] (1, 2, 5 and 10 μg/ml tested, 0, 12, 24, 48 hours) worked out at 5 µg/mL. Besides, the “Wound healing index compared with the control group” value in experiment [3] is “high wound healing index”.

For `C[C@@H](N)[C@H]1CC[C@H](C(=O)Nc2ccncc2)CC1` [Y-27632, reference compound], the “Ratio of number of cornea without opacity and edema (digital camera images)” value in experiment [1] (setting [4]) is recorded as 0%; in experiment [1] (setting [5]) it was 14.3%; in experiment [1] (setting [6]), 14.3%; in experiment [1] (setting [7]) it was 14.3%. For the same compound, in experiment [2], the “Corneal endothelium wounded area observed by alizarin red S-staining” value was “smaller wounded areas than those of the control group”. Further, in experiment [2], the “Morphology (hexagonality) of endothelial cells around the wounded area” value is “significant modification of cell morpology”. Also, in experiment [3], the “Wound healing index compared with the control group” value is “high wound healing index”.
